Experimental data: patent US20150313837A1, “POLYMERIC HYDROGEL COMPOSITIONS WHICH RELEASE ACTIVE AGENTS IN RESPONSE TO ELECTRICAL STIMULUS” (University of Witwatersrand, Johannesburg, priority 2010, published 2015)

Test: Drug leakage from hydrogel in PBS in absence of electric current
Type: physicochemical
Details: comparison of drugs loaded in the hydrogel
Experimental: The indomethacin-loaded hydrogels were left in […] PBS for 12 hours, and a 1 mL sample was then taken in order to assess for any drug release prior to exposure to an electric current. […] Further tests for drug release of the indomethacin-loaded hydrogels in the presence of an electric current were performed.
The system was therefore left in 50 mL of PBS for 12 hours, and 1 mL sample was taken and assessed for any presence of drugs. […] The hydrogels were then then assessed for their drug release capacity. They were once again immersed in PBS and an electric current was passed through them. This time, 35 samples were extracted and assessed by UV/visible spectroscopy for the amount of drugs which were released.
The amount of drug released ranged from 0.081 mg to 0.160 mg. The hydrogel was then assessed one last time for any leakage of drugs. The hydrogel was immersed in 50 mL of PBS for 12 hours.
One possible explanation for this phenomenon is the larger molecular size of indomethacin as compared to diclofenac sodium and ibuprofen. This larger molecular size means that indomethacin is better entrapped inside the three dimensional network of the hydrogel system.

SMILES	leakage of loaded drug from hydrogel when no electric current is applied
CC(C)Cc1ccc(C(C)C(=O)O)cc1 (stereo not drawn) [ibuprofen]	drug leakage may still have occurred on the surface
O=C(O)Cc1ccccc1Nc1c(Cl)cccc1Cl [Diclofenac sodium]	drug leakage may still have occurred on the surface
COc1ccc2c(c1)c(CC(=O)O)c(C)n2C(=O)c1ccc(Cl)cc1 [indomethacin]	no leakage occurred
